The text below walks through data of patent US20080234262A1 (Wyeth, priority 2007, published 2008).

Each structure is given as a SMILES string.

The term IC50 denotes the concentration that gives 50% inhibition.

One assay deals with prostate line LNCap. Briefly: In vitro cell culture growth assay (MTS), LNCap.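 Note: viable cell density read by absorbance at 490 nm, growth expressed as percent of vehicle-treated cells on the same plate.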 The class given is cell-based, human. The settings on record: Homo sapiens, LNCaP, 72 h, LNCap cells, three days after drug treatment.
Another assay concerns breast line MDA468. Briefly: In vitro cell culture growth assay (MTS), MDA468. The class given is cell-based, human. The settings on record: Homo sapiens, 72 h, MDA468 cells, three days after drug treatment. The method in brief: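 Three-day drug treatment starting 1 day post-plating; viable cells quantified via MTS metabolism (A490); effect normalised to in-plate vehicle controls as % growth.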

In a further assay the target is PI3K (Homo sapiens, UniProt P42336). As to the kind of experiment: Fluorescence polarization assay for PI3K.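 Note: PI3K kinase reaction on PIP2 with ATP, 30-60 min, product sensed by GST-GRP with red probe in fluorescence polarization (mP), controls without enzyme and at zero time.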 The class given is biochemical. The settings on record: PI3Kα; read-out: PI3Kα IC50. Background: Fluorescence polarisation rises when a labelled molecule tumbles more slowly, as on binding a larger partner.
Sequence of PI3K (P42336 whole entry): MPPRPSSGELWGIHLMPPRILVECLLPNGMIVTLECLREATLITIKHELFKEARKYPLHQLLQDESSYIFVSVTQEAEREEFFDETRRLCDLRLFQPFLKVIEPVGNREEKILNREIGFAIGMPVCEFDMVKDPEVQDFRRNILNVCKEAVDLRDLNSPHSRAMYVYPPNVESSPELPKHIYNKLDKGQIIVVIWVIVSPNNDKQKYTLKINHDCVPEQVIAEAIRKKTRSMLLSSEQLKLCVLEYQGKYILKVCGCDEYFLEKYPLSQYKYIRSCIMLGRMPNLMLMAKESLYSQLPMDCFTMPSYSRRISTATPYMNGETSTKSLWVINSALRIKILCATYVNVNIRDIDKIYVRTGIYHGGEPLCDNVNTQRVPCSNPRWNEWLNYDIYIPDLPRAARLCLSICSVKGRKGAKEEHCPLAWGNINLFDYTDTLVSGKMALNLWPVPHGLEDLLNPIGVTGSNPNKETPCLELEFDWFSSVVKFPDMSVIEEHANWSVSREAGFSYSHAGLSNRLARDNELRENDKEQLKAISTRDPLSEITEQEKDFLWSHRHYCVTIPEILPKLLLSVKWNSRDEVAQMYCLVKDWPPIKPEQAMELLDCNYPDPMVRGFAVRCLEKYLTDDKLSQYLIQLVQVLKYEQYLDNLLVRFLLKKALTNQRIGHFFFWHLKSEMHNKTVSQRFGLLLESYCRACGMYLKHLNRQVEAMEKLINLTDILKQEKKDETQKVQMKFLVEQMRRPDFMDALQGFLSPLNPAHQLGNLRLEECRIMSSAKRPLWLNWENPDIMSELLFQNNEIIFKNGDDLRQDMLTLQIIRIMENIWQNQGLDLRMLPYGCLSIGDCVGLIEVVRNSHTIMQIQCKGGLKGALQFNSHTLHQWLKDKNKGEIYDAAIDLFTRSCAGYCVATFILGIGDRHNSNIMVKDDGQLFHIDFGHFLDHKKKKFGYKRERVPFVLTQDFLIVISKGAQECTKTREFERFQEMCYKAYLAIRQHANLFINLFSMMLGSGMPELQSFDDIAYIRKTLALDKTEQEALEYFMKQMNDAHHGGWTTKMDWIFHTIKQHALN
Sequence of PI3K (P27986 whole entry partner): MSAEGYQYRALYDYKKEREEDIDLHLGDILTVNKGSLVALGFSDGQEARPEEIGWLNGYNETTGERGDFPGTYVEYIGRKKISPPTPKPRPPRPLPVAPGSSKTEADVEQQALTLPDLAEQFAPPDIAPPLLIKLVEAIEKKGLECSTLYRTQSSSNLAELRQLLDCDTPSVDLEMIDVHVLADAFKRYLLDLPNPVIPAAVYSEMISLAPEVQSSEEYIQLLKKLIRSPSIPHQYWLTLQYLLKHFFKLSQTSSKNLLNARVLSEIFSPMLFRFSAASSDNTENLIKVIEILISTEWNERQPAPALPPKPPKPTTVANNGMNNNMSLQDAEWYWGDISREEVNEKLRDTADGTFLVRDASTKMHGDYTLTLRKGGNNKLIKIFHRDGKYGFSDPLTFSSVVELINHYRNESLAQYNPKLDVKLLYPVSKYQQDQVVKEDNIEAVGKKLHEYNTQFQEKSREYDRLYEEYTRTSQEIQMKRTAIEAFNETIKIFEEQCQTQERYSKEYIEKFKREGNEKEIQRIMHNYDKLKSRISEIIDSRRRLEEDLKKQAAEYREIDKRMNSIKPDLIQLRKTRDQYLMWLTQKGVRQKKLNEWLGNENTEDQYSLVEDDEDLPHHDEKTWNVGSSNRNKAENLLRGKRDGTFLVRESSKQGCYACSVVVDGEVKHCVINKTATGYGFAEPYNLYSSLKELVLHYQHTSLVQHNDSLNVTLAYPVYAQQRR

`Oc1cccc(-c2nc(N3CCOCC3)c3cnn(C4CCN(CC5CC5)CC4)c3n2)c1` [Example 13]: the figures for the IC50 in the assay on prostate line LNCap, with breast line MDA468 and at PI3K were 270 nM, 1500 nM and 34 nM, respectively.
For the compound `Oc1cccc(-c2nc(N3CCOCC3)c3cnn(C4CCN(Cc5ccc[nH]5)CC4)c3n2)c1` [Example 14], the IC50 worked out at 110 nM in the assay with prostate line LNCap, 600 nM with breast line MDA468 and 20 nM at PI3K.
The matching figures for `Cc1ccc(CN2CCC(n3ncc4c(N5CCOCC5)nc(-c5cccc(O)c5)nc43)CC2)s1` [Example 18]: 220 nM, 1300 nM and 22 nM.
As to `COc1ccc(CN2CCC(n3ncc4c(N5CCOCC5)nc(-c5cccc(O)c5)nc43)CC2)cc1O` [Example 20], the IC50 is 130 nM in the assay with prostate line LNCap, 700 nM with breast line MDA468 and 21 nM at PI3K.
The matching figures for `O=C(C1CC1)N1CCC(n2ncc3c(N4CCOCC4)nc(-c4cccc(O)c4)nc32)CC1` [Example 21]: 500 nM, 1400 nM and 98 nM.
The matching figures for `O=C(c1ccco1)N1CCC(n2ncc3c(N4CCOCC4)nc(-c4cccc(O)c4)nc32)CC1` [Example 22]: 300 nM, 900 nM and 31 nM.
The matching figures for `O=C(c1ccc(Cl)nc1)N1CCC(n2ncc3c(N4CCOCC4)nc(-c4cccc(O)c4)nc32)CC1` [Example 23]: 150 nM, 800 nM and 63 nM.
Consider `O=C(C1CCCCC1)N1CCC(n2ncc3c(N4CCOCC4)nc(-c4cccc(O)c4)nc32)CC1` [Example 26], for which the 50% inhibitory concentration (IC50) in the assay on prostate line LNCap was 1300 nM; with breast line MDA468, 4000 nM; at PI3K, 68 nM.
As to `CC(C)C(=O)N1CCC(n2ncc3c(N4CCOCC4)nc(-c4cccc(O)c4)nc32)CC1` [Example 29], the IC50 with prostate line LNCap came to 400 nM; in the assay with breast line MDA468, 1200 nM; on PI3K it was 59 nM.
The corresponding values for `COc1cccc(-c2nc(N3CCOCC3)c3cnn(C4CCN(Cc5ccccc5)CC4)c3n2)c1` [Example 32] are 8800 nM, 10000 nM and 1440 nM.
In the case of `COCC(=O)N1CCC(n2ncc3c(N4CCOCC4)nc(-c4ccc5[nH]ccc5c4)nc32)CC1` [Example 40], the concentration for half-maximal inhibition (IC50) in the assay with prostate line LNCap was 800 nM; in the assay on breast line MDA468, 900 nM; on PI3K, 3750 nM.
`c1ccc2cc(-c3nc(N4CCOCC4)c4cnn(C5CCNCC5)c4n3)ccc2c1` [Example 44]: the IC50 in the assay with prostate line LNCap came to 1700 nM; in the assay with breast line MDA468 it was 1400 nM; at PI3K, 11000 nM.
With `c1ccc(CN2CCC(n3ncc4c(N5CCOCC5)nc(-c5ccc6[nH]ccc6c5)nc43)CC2)cc1` [Example 45], the 50% inhibitory concentration (IC50) in the assay with prostate line LNCap came out at 1400 nM; in the assay with breast line MDA468 it was 1900 nM; at PI3K, 1010 nM.
The matching figures for `COc1cccc(C(=O)N2CCC(n3ncc4c(N5CCOCC5)nc(-c5ccc6[nH]ccc6c5)nc43)CC2)c1` [Example 48]: 590 nM, 2300 nM and 780 nM.
The corresponding values for `O=C(c1ccccn1)N1CCC(n2ncc3c(N4CCOCC4)nc(-c4ccc5[nH]ccc5c4)nc32)CC1` [Example 51] are 340 nM, 1700 nM and 1100 nM.
For the compound `Cc1ccc(C(=O)N2CCC(n3ncc4c(N5CCOCC5)nc(-c5ccc6[nH]ccc6c5)nc43)CC2)cc1` [Example 53], the IC50 stood at 220 nM in the assay on prostate line LNCap, 3900 nM with breast line MDA468 and 846 nM at PI3K.
With `Fc1ccc(CN2CCC(n3ncc4c(N5CCOCC5)nc(-c5ccc6[nH]ccc6c5)nc43)CC2)cc1` [Example 55], the IC50 was determined as 2500 nM with prostate line LNCap, 3000 nM in the assay with breast line MDA468 and 686 nM at PI3K.
On to `Cc1ccc(CN2CCC(n3ncc4c(N5CCOCC5)nc(-c5ccc6[nH]ccc6c5)nc43)CC2)cc1` [Example 56], for which the IC50 in the assay with prostate line LNCap came to 2000 nM; in the assay with breast line MDA468, 2700 nM; on PI3K, 425 nM.
The matching figures for `CN(C)c1ccc(CN2CCC(n3ncc4c(N5CCOCC5)nc(-c5ccc6[nH]ccc6c5)nc43)CC2)cc1` [Example 58]: 1200 nM, 1500 nM and 428 nM.
The matching figures for `c1ccc(CN2CCC(n3ncc4c(N5CCOCC5)nc(-c5cccc6[nH]ccc56)nc43)CC2)cc1` [Example 59]: 500 nM, 2600 nM and 239 nM.
Take `c1ccc(CN2CCC(n3ncc4c(N5CCOCC5)nc(-c5cc6ccccc6s5)nc43)CC2)cc1` [Example 67]: the IC50 with prostate line LNCap worked out at 10000 nM; in the assay with breast line MDA468, 12000 nM; at PI3K, 2910 nM.
The corresponding values for `CN(C)S(=O)(=O)c1cccc(-c2nc(N3CCOCC3)c3cnn(C4CCN(Cc5ccccc5)CC4)c3n2)c1` [Example 69] are 3100 nM, 4000 nM and 10500 nM.
Take `O=C(NC1CCCC1)c1ccc(-c2nc(N3CCOCC3)c3cnn(C4CCN(Cc5ccccc5)CC4)c3n2)cc1` [Example 70]: the half-maximal inhibitory concentration (IC50) in the assay with prostate line LNCap amounted to 3000 nM; with breast line MDA468, 15000 nM; at PI3K, 3870 nM.
As to `c1ccc(CN2CCC(n3ncc4c(N5CCOCC5)nc(-c5cccc6cc[nH]c56)nc43)CC2)cc1` [Example 72], the IC50 in the assay with prostate line LNCap worked out at 9500 nM; in the assay on breast line MDA468 it was 6000 nM; on PI3K it was 520 nM.
For the compound `Oc1cccc(CN2CCC(n3ncc4c(N5CCOCC5)nc(-c5ccc6[nH]ccc6c5)nc43)CC2)c1` [Example 76], the values for the IC50 in the assay on prostate line LNCap, with breast line MDA468 and at PI3K were 900 nM, 1000 nM and 522 nM, respectively.
As to `c1cc2cc(-c3nc(N4CCOCC4)c4cnn(C5CCCCC5)c4n3)ccc2[nH]1` [Example 90, 1-cyclohexyl-6-(1H-indol-5-yl)-4-morpholin-4-yl-1H-pyrazolo[3,4-d]pyrimidine], the IC50 worked out at 1200 nM with prostate line LNCap, 3200 nM in the assay on breast line MDA468 and 918 nM at PI3K.
Take `Oc1cccc(-c2nc(N3CCOCC3)c3cnn(C4CCCCC4)c3n2)c1` [Example 91, 3-(1-cyclohexyl-4-morpholin-4-yl-1H-pyrazolo[3,4-d]pyrimidin-6-yl)phenol]: the IC50 with prostate line LNCap worked out at 410 nM; in the assay with breast line MDA468, 2500 nM; at PI3K, 35 nM.
As for `CC(=O)Nc1ccc(-c2nc(N3CCOCC3)c3cnn(C4CCN(C(=O)c5cccnc5)CC4)c3n2)cc1` [Example 159, N-(4-{4-morpholin-4-yl-1-[1-(pyridin-3-ylcarbonyl)piperidin-4-yl]-1H-pyrazolo[3,4-d]pyrimidin-6-yl}phenyl)acetamide], the figures for the IC50 in the assay on prostate line LNCap, in the assay with breast line MDA468 and on PI3K were 630 nM, 2500 nM and 878 nM, respectively.
Regarding `Fc1ccc(CN2CCC(n3ncc4c(N5CCOCC5)nc(-c5ccc6[nH]ccc6c5)nc43)CC2)cn1` [Example 172, 1-{1-[(6-fluoropyridin-3-yl)methyl]piperidin-4-yl}-6-(1H-indol-5-yl)-4-morpholin-4-yl-1H-pyrazolo[3,4-d]pyrimidine], the IC50 came to 1000 nM in the assay on prostate line LNCap, 1700 nM with breast line MDA468 and 366 nM at PI3K.
The corresponding values for `Brc1ccc(CN2CCC(n3ncc4c(N5CCOCC5)nc(-c5ccc6[nH]ccc6c5)nc43)CC2)cn1` [Example 173, 1-{1-[(6-bromopyridin-3-yl)methyl]piperidin-4-yl}-6-(1H-indol-5-yl)-4-morpholin-4-yl-1H-pyrazolo[3,4-d]pyrimidine] are 1200 nM, 2700 nM and 262 nM.
The corresponding values for `O=C(c1cccnc1Cl)N1CCC(n2ncc3c(N4CCOCC4)nc(-c4ccc5[nH]ccc5c4)nc32)CC1` [Example 195, 1-{1-[(2-chloropyridin-3-yl)carbonyl]piperidin-4-yl}-6-(1H-indol-5-yl)-4-morpholin-4-yl-1H-pyrazolo[3,4-d]pyrimidine] are 450 nM, 1000 nM and 1690 nM.
On to `O=C(c1ccc(Cl)nc1)N1CCC(n2ncc3c(N4CCOCC4)nc(-c4ccc5[nH]ccc5c4)nc32)CC1` [Example 196, 1-{1-[(6-chloropyridin-3-yl)carbonyl]piperidin-4-yl}-6-(1H-indol-5-yl)-4-morpholin-4-yl-1H-pyrazolo[3,4-d]pyrimidine], for which the IC50 in the assay on prostate line LNCap was 750 nM; in the assay with breast line MDA468, 3000 nM; at PI3K it was 1280 nM.
The corresponding values for `O=C(c1ncccc1O)N1CCC(n2ncc3c(N4CCOCC4)nc(-c4ccc5[nH]ccc5c4)nc32)CC1` [Example 198, 2-({4-[6-(1H-indol-5-yl)-4-morpholin-4-yl-1H-pyrazolo[3,4-d]pyrimidin-1-yl]piperidin-1-yl}carbonyl)pyridin-3-ol] are 700 nM, 4000 nM and 1650 nM.
Regarding `Cc1ccncc1C(=O)N1CCC(n2ncc3c(N4CCOCC4)nc(-c4ccc5[nH]ccc5c4)nc32)CC1` [Example 199, 6-(1H-indol-5-yl)-1-{1-[(4-methylpyridin-3-yl)carbonyl]piperidin-4-yl}-4-morpholin-4-yl-1H-pyrazolo[3,4-d]pyrimidine], the concentration for half-maximal inhibition (IC50) in the assay on prostate line LNCap is 450 nM; in the assay on breast line MDA468, 1800 nM; on PI3K, 2940 nM.
The corresponding values for `Cc1ncccc1C(=O)N1CCC(n2ncc3c(N4CCOCC4)nc(-c4ccc5[nH]ccc5c4)nc32)CC1` [Example 200, 6-(1H-indol-5-yl)-1-{1-[(2-methylpyridin-3-yl)carbonyl]piperidin-4-yl}-4-morpholin-4-yl-1H-pyrazolo[3,4-d]pyrimidine] are 750 nM, 2000 nM and 2390 nM.
